Measured values reported in patent US6624185B2, “Diarylcycloalkyl derivatives, processes for their preparation and their use as pharmaceuticals” (Aventis Pharma Deutschland GmbH, priority 2001, dated 2003).

Biological target: T1, human PPARα (Homo sapiens, UniProt Q07869)
T1 construct: expressed in transfected cells; host or cells: HEK (human embryo kidney) cells, stably transfected
T1 sequence (Q07869 1-468): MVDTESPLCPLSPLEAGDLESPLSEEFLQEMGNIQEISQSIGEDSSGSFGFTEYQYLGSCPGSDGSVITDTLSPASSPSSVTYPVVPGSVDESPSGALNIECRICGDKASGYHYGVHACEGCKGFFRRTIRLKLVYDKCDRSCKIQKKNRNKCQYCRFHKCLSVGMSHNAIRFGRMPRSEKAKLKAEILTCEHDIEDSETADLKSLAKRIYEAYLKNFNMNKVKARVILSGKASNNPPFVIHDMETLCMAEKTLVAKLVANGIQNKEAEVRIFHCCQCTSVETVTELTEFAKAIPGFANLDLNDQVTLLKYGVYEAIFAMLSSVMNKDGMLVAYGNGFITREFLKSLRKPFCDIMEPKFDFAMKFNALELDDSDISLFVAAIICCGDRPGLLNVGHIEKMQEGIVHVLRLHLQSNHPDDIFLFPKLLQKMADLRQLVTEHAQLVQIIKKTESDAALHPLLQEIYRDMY
Assay: PPARα reporter cell line assay (stably transfected HEK cells, luciferase readout, three-day test)
Assay type: cell-based
Settings: agonist activity in stably transfected HEK PPARα reporter cell line, 24 h incubation, luciferase luminescence
Protocol: To analyze the effectiveness of substances which bind to human PPARα, activating it in agonistic manner, a stable transfected HEK cell line (HEK=human embryo kidney) designated here as “PPARα reporter cell line” is used.
The activity of PPARα agonists is determined in a three-day test, described below:
The PPARα reporter cell line is cultivated up to 80% confluence in DMEM medium (#41965-039, Life Technologies) with the following additives: 10% cs-FCS (fetal calf serum, #SH-30068.03, Hyclone), antibiotics (0.5 mg/ml of zeozin [#R250-01, Invitrogen], 0.5 mg/ml of G418 [#10131-019, Life Technologies], 1% penicillin streptomycin solution [#15140-031, Life Technologies]) and 2 mM of L-glutamine (#25030-032, Life Technologies). Cultivation is carried out in standard cell culture bottles (#33111, Becton Dickinson) in a cell culture incubator at 37° C. and 5% CO2. The 80% confluent cells are washed once with 30 ml of PBS (#141-090- 094, Life Technologies), treated with 2 ml of trypsin solution (#25300-054, Life Technologies) at 37° C. for 2 min, taken up in 5 ml of the medium described above and counted in a cell counter. After dilution to 500,000 cells/ml, in each case 100,000 cells are sown into each well of a 96-well microtiter plate having a clear plastic bottom (#3610, Corning Costar). The plates are incubated in a cell incubator at 37° C. and 5% CO2 for 24 h.
The PPARα agonists to be tested are dissolved in DMSO at a concentration of 10 mM. This stock solution is diluted in Phenol-Red-free DMEM medium (#21063-029, Life Technologies) to which 5% of cs-FCS (#SH-30068.03, Hyclone), 2 mM of L-glutamine (#25030-032, Life Technologies) and the antibiotics described above (zeozin, G418, penicillin and streptomycin) had been added.
Test substances are usually tested at 11 different concentrations (10 μM; 3.3 μM; 1 μM; 0.33 μM; 0,1 μM; 0.033 μM; 0.01 μM; 0.0033 μM; 0.001 μM; 0.00033 μM and 0.0001 μM). […] From each well, the medium of the PPARα reporter cell line sown on day 1 is completely removed by aspiration, and immediately, the test substances diluted in medium are added to the cells. Dilution and addition of the substances can be carried out using a robot (Beckman Biomek 2000). The end volume of the test substances diluted in medium is 100 μl per well of a 96-well plate. The DMSO concentration in the assay is always below 0.1% v/v to prevent cytotoxic effects of the solvent.
The test plates are incubated in an incubator at 37° C. and 5% CO2 for 24 h.
The PPARα receptor cells treated with the test substances are removed from the incubator and frozen at −20° C. for 1 h to improve cell lysis. After the plates have thawed (thawing at room temperature for at least 30 min), 50 μl of buffer 1 (Luc-Screen kit #LS1000, PE Biosystems Tropix) are pipetted into each well and the plates are then transferred into an apparatus for measuring luminescence, fitted with a pipetting unit (Luminoscan Ascent, LabSystems). The luciferase reaction in the measurement apparatus is started by pipetting 50 μl of buffer 2 (Luc-Screen kit #LS1000, PE Biosystems Tropix) into each well of the 96-well plate. Addition of buffer to the individual wells is carried out in defined and identical time intervals following the instructions of the manufacturer (LabSystems). All samples are measured exactly 16 min after addition of buffer 2. Measurement time is 10 sec per sample.
The crude data of the apparatus for measuring luminescence are exported into a Microsoft Excel file. Dose-activity curves and EC50 values are calculated using the program XL.Fit according to the instructions of the manufacturer (IDBS).

| Compound | EC50 |
| --- | --- |
| Cc1ccccc1-c1nc(COC2CCCC(OCc3cccc(C)c3C(=O)O)C2)c(C)o1 (centres unmarked) [XLI, 2-{3-[2-(2-Methylphenyl)-5-methyloxazol-4-ylmethoxy]cyclohexyloxymethyl}-6-methylbenzoic Acid] | 0.6 nM |
| COc1ccc(-c2nc(COC3CCCC(OCc4cccc(C)c4C(=O)O)C3)c(C)o2)cc1OC (centres unmarked) [XLIII, 2-{3-[2-(3,4-Dimethoxyphenyl)-5-methyloxazol-4-ylmethoxy]cyclohexyloxymethyl}-6-methylbenzoic Acid] | 0.58 nM |
| Cc1cccc(-c2nc(COC3CCCC(OCc4cccc(C)c4C(=O)O)C3)c(C)o2)c1 (centres unmarked) [XXXVIII, 2-{3-[2-(3-Methylphenyl)-5-methyloxazol-4-ylmethoxy]cyclohexyloxymethyl}-6-methylbenzoic Acid] | 0.57 nM |
| Cc1cccc(CC[C@@H]2CCC[C@H](OCc3coc(-c4ccc(F)cc4)n3)C2)c1C(=O)O (racemic) [XXVIII, Rac-cis-2-(2-{3-[2-(4-Fluorophenyl)oxazol-4-ylmethoxy]cyclohexyl}ethyl)-6-methylbenzoic Acid] | 14 nM |
| Cc1cccc(COC[C@H]2CCC[C@@H](OCc3coc(-c4ccc(F)cc4)n3)C2)c1C(=O)O (racemic) [XXV, Rac-cis-2-{3-[2-(4-Fluorophenyl)oxazol4-ylmethoxy]cyclohexylmethoxymethyl}-6-methylbenzoic Acid] | 13 nM |
| Cc1cccc(COC2CCCC(OCc3nc(-c4cccc(C#N)c4)oc3C)C2)c1C(=O)O (centres unmarked) [XLIV, 2-{3-[2-(3-Cyanophenyl)-5-methyloxazol-4-ylmethoxy]cyclohexyloxymethyl}-6-methylbenzoic Acid] | 0.93 nM |
| COc1cccc(-c2nc(COC3CCCC(OCc4cccc(C)c4C(=O)O)C3)c(C)o2)c1 (centres unmarked) [XXXIV, 2-{3-[2-(3-Methoxyphenyl)-5-methyloxazol4-ylmethoxy]cyclohexyloxymethyl}-6-methylbenzoic Acid] | 0.82 nM |
| Cc1cccc(CC[C@H]2CCC[C@H](OCc3coc(-c4ccc(F)cc4)n3)C2)c1C(=O)O (racemic) [XXIX, Rac-trans-2-(2-{3-[2-(4-Fluorophenyl)oxazol4-ylmethoxy]cyclohexyl}ethyl)-6-methylbenzoic Acid] | 32 nM |
| 2-{3-[2-(4-Fluorophenyl)oxazola4-ylmethoxy]cyclohexyloxy}-6-methylbenzoic Acid [Example I] | 1 nM |
| Cc1cccc(COC2CCCC(OCc3nc(-c4cccc(Cl)c4)oc3C)C2)c1C(=O)O (centres unmarked) [XXXVI, 2-{3-[2-(3-Chlorophenyl)-5-methyloxazol4-ylmethoxy]cyclohexyloxymethyl}-6-methylbenzoic Acid] | 0.62 nM |
| Cc1cccc(COC2CCCC(OCc3nc(-c4cccc(Br)c4)oc3C)C2)c1C(=O)O (centres unmarked) [XXXII] | 0.97 nM |
